Reference: US11180462B2, “Microbiocidal oxadiazole derivatives” (SYNGENTA PARTICIPATIONS AG, priority 2015, dated 2021)

Key:
[1] = test system: Puccinia recondita f. Sp. Tritici; assay: Fungicidal activity against Puccinia recondita f. sp. tritici / wheat / leaf disc preventative (brown rust); format: in vivo; conditions: foliar, 200 ppm in the applied formulation, wheat leaf segments, preventative, compared to untreated control leaf disks, read-out: disease control
How it was run: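 200 ppm spray on wheat cv. Kanzler leaf segments; spore inoculation +1 day; 19° C., 75% rh, 12 h/12 h light cycle; single rating of % control vs untreated at 7 to 9 days.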

[2] = test system: Puccinia recondita f. Sp. Tritici; assay: Fungicidal activity against Puccinia recondita f. sp. tritici / wheat / leaf disc curative (brown rust); format: in vivo; conditions: foliar, 24 h, 200 ppm in the applied formulation, wheat leaf segments, curative (applied 1 day after inoculation), compared to untreated control leaf disks, read-out: disease control
How it was run: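 % disease control vs untreated, scored 6–8 d post-application. Wheat cv. Kanzler segments, spore-inoculated, dark 19° C/75% RH; formulated cpd applied 1 d post-inoc; then 19° C, 75% RH, 12 h L/12 h D.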

Phakopsora Pachyrhizi = assay: Fungicidal activity against Phakopsora pachyrhizi / soybean / leaf disc preventative (Asian soybean rust); format: in vivo; conditions: foliar, 200 ppm in the applied formulation, soybean leaf disks, compared to untreated control leaf disks, read-out: disease control
How it was run: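 Scored 12 to 14 days post-application as percent control relative to untreated check discs, rust spores were sprayed under the disc one day after compound treatment. Incubation: 20°C, 75% rh, first 24–36 h in darkness, then 12 h daily light; discs kept on water agar.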

[3] = test system: Glomerella lagenarium (Colletotrichum lagenarium); assay: Fungicidal activity against Glomerella lagenarium (Colletotrichum lagenarium) liquid culture / cucumber / preventative (anthracnose); format: cell-based; conditions: Colletotrichum orbiculare; 20 ppm in the applied formulation; liquid culture (PDB), growth inhibition measured photometrically after 3 to 4 days; compared to untreated control; read-out: disease control
How it was run: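 Percent activity against the untreated check was derived from photometric growth measurements made 2 to 7 days after conidia in potato dextrose broth were combined with compound at 20 ppm. Cultures were kept dark at 24 °C and 96% humidity.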

CC1CC1C(=O)N(Cc1ccc(-c2noc(C(F)(F)F)n2)cc1)CC1CC1 (stereo not drawn) [Compound 1.223, N-(cyclopropylmethyl)-2-methyl-N-[[4-[5-(trifluoromethyl)-1,2,4-oxadiazol-3-yl]phenyl]methyl]-cyclopropane-carboxamide]
≥ 80%: pest or weed control at 200 ppm [1] | pest or weed control at 200 ppm [2] | pest or weed control at 200 ppm (Phakopsora Pachyrhizi) | inhibition of growth at 20 ppm [3]

COCCN(Cc1ccc(-c2noc(C(F)(F)F)n2)cc1)C(=O)C1CC1C (stereo not drawn) [Compound 1.341, N-(2-methoxyethyl)-2-methyl-N-[[4-[5-(trifluoromethyl)-1,2,4-oxadiazol-3-yl]phenyl]methyl]-cyclopropane-carboxamide]
≥ 80%: pest or weed control at 200 ppm [1] | pest or weed control at 200 ppm [2] | pest or weed control at 200 ppm (Phakopsora Pachyrhizi) | inhibition of growth at 20 ppm [3]

CCC(C)N(Cc1ccc(-c2noc(C(F)(F)F)n2)cc1)C(=O)C1(C#N)CC1 (stereo not drawn) [Compound 1.399, 1-cyano-N-sec-butyl-N-[[4-[5-(trifluoromethyl)-1,2,4-oxadiazol-3-yl]phenyl]methyl]-cyclopropane-carboxamide]
≥ 80%: pest or weed control at 200 ppm [1] | pest or weed control at 200 ppm [2] | pest or weed control at 200 ppm (Phakopsora Pachyrhizi) | inhibition of growth at 20 ppm [3]

CCCNC(=O)N(Cc1ccc(-c2noc(C(F)(F)F)n2)cc1)OC [Compound 3.21, 1-methoxy-3-propyl-1-[[4-[5 - (trifluoromethyl)-1,2,4-oxadiazol-3-yl]phenyl]methyl]urea]
≥ 80%: pest or weed control at 200 ppm [1] | pest or weed control at 200 ppm [2] | pest or weed control at 200 ppm (Phakopsora Pachyrhizi) | inhibition of growth at 20 ppm [3]

CCC(C)N(Cc1ccc(-c2noc(C(F)(F)F)n2)cc1)C(=O)C(C)C (stereo not drawn) [Compound 1.369, 2-methyl-N-sec-butyl-N-[[4-[5-(trifluoromethyl)-1,2,4-oxadiazol-3-yl]phenyl]methyl]-propanamide]
≥ 80%: pest or weed control at 200 ppm [1] | pest or weed control at 200 ppm [2] | pest or weed control at 200 ppm (Phakopsora Pachyrhizi) | inhibition of growth at 20 ppm [3]

CCN(Cc1ccc(-c2noc(C(F)(F)F)n2)cc1)C(=O)CCCOC [Compound 1.507, N-ethyl-4-methoxy-N-[[4-[5-(trifluoromethyl)-1,2,4-oxadiazol-3-yl]phenyl]methyl]-butanamide]
≥ 80%: pest or weed control at 200 ppm [1] | pest or weed control at 200 ppm [2] | pest or weed control at 200 ppm (Phakopsora Pachyrhizi) | inhibition of growth at 20 ppm [3]

C=C(C)C(=O)N(CCOC)Cc1ccc(-c2noc(C(F)(F)F)n2)cc1 [Compound 1.346, N-(2-methoxyethyl)-2-methyl-N-[[4-[5-(trifluoromethyl)-1,2,4-oxadiazol-3-yl]phenyl]methyl]prop-2-enamide]
≥ 80%: pest or weed control at 200 ppm [1] | pest or weed control at 200 ppm [2] | pest or weed control at 200 ppm (Phakopsora Pachyrhizi) | inhibition of growth at 20 ppm [3]

O=C(CC1CC1)ON(Cc1ccc(-c2noc(C(F)(F)F)n2)cc1)C(=O)CC1CC1 [Compound 1.775, [(2-cyclo-propylacetyl)-[[4-[5-(trifluoromethyl)-1,2,4-oxadiazol-3-yl]phenyl]methyl]-amino] 2-cyclopropylacetale]
≥ 80%: pest or weed control at 200 ppm [1] | pest or weed control at 200 ppm [2] | pest or weed control at 200 ppm (Phakopsora Pachyrhizi) | inhibition of growth at 20 ppm [3]

CC(C)C(=O)N(Cc1ccc(-c2noc(C(F)(F)F)n2)cc1)CC1CCCO1 (stereo not drawn) [Compound 1.412, 2-methyl-N-(tetrahydrofuran-2-ylmethyl)-N-[[4-[5-(trifluoromethyl)-1,2,4-oxadiazol-3-yl]phenyl]methyl]-propanamide]
≥ 80%: pest or weed control at 200 ppm [1] | pest or weed control at 200 ppm [2] | pest or weed control at 200 ppm (Phakopsora Pachyrhizi) | inhibition of growth at 20 ppm [3]

O=C(C1CCOC1)N(Cc1ccc(-c2noc(C(F)(F)F)n2)cc1)CC1CC1 (stereo not drawn) [Compound 1.215, N-(cyclopropylmethyl)-N-[[4-[5-(trifluoromethyl)-1,2,4-oxadiazol-3-yl]phenyl]methyl]-tetrahydrofuran-3-carboxamide]
≥ 80%: pest or weed control at 200 ppm [1] | pest or weed control at 200 ppm [2] | pest or weed control at 200 ppm (Phakopsora Pachyrhizi) | inhibition of growth at 20 ppm [3]

C=CCN(Cc1ccc(-c2noc(C(F)(F)F)n2)cc1)C(=O)C1CC1(F)F (stereo not drawn) [Compound 1.484, N-allyl-2,2-difluoro-N-[[4-[5-(trifluoromethyl)-1,2,4-oxadiazol-3-yl]phenyl]methyl]-cyclopropane-carboxamide]
≥ 80%: pest or weed control at 200 ppm [1] | pest or weed control at 200 ppm [2] | pest or weed control at 200 ppm (Phakopsora Pachyrhizi) | inhibition of growth at 20 ppm [3]

COC(C)C(=O)N(Cc1ccc(-c2noc(C(F)(F)F)n2)cc1)Cc1ccco1 (stereo not drawn) [Compound 1.472, N-(2-furylmethyl)-2-methoxy-N-[[4-[5-(trifluoromethyl)-1,2,4-oxadiazol-3-yl]phenyl]methyl]-propanamide]
≥ 80%: pest or weed control at 200 ppm [1] | pest or weed control at 200 ppm [2] | pest or weed control at 200 ppm (Phakopsora Pachyrhizi) | inhibition of growth at 20 ppm [3]

COCC(=O)N(OC)C(C)c1ccc(-c2noc(C(F)(F)F)n2)cc1 (stereo not drawn) [Compound 1.253, N,2-dimethoxy-N-(1-[4-[5-(trifluoromethyl)-1,2,4-oxadiazol-3-yl]phenyl]ethyl]-acetamide]
≥ 80%: pest or weed control at 200 ppm [1] | pest or weed control at 200 ppm [2] | pest or weed control at 200 ppm (Phakopsora Pachyrhizi) | inhibition of growth at 20 ppm [3]

COCCC(=O)N(C)Cc1ccc(-c2noc(C(F)(F)F)n2)cc1 [Compound 1.516, 3-methoxy-N-methyl-N-[[4-[5-(trifluoromethyl)-1,2,4-oxadiazol-3-yl]phenyl]methyl]-propanamide]
≥ 80%: pest or weed control at 200 ppm [1] | pest or weed control at 200 ppm [2] | pest or weed control at 200 ppm (Phakopsora Pachyrhizi) | inhibition of growth at 20 ppm [3]

CONC(=O)N(Cc1ccc(-c2noc(C(F)(F)F)n2)cc1)OC [Compound 3.22, 1,3-dimethoxy-1-[[4-[5-(trifluoromethyl)-1,2,4-oxadiazol-3-yl]phenyl]methyl]urea]
≥ 80%: pest or weed control at 200 ppm [1] | pest or weed control at 200 ppm [2] | pest or weed control at 200 ppm (Phakopsora Pachyrhizi) | inhibition of growth at 20 ppm [3]

O=C(CC(F)(F)F)N(Cc1ccc(-c2noc(C(F)(F)F)n2)cc1)C1CC1 [Compound 1.111, N-cyclopropyl-3,3,3-trifluoro-N-[[4-[5-(trifluoromethyl)-1,2,4-oxadiazol-3-yl]phenyl]methyl]-propanamide]
≥ 80%: pest or weed control at 200 ppm [1] | pest or weed control at 200 ppm [2] | pest or weed control at 200 ppm (Phakopsora Pachyrhizi) | inhibition of growth at 20 ppm [3]

CON(Cc1ccc(-c2noc(C(F)(F)F)n2)cc1)C(=O)N(C)C1CC1 [Compound 3.58, 1-cyclopropyl-3-methoxy-1-methyl-3-[[4-[5-(trifluoromethyl)-1,2,4-oxadiazol-3-yl]phenyl]methyl]urea]
≥ 80%: pest or weed control at 200 ppm [1] | pest or weed control at 200 ppm [2] | pest or weed control at 200 ppm (Phakopsora Pachyrhizi) | inhibition of growth at 20 ppm [3]

CCC(C)N(Cc1ccc(-c2noc(C(F)(F)F)n2)cc1)C(=O)C1OCCO1 (stereo not drawn) [Compound 1.403, N-sec-butyl-N-[[4-[5-(trifluoromethyl)-1,2,4-oxadiazol-3-yl]phenyl]methyl]-1,3-dioxolane-2-carboxamide]
≥ 80%: pest or weed control at 200 ppm [1] | pest or weed control at 200 ppm [2] | pest or weed control at 200 ppm (Phakopsora Pachyrhizi) | inhibition of growth at 20 ppm [3]
